pIC50: −log10 of the molar value.
Tests used:
Type in all cases: in vitro ADME
[1] = Predicted hepatic clearance, hepatic microsomes (human)
Procedure: (§1) After a 5 min preincubation, the reaction was initiated by the addition of NADPH (1 mM). At selected time intervals (0, 3, 7, 15, 25, and 45 min), aliquots were taken and subsequently placed into a 96-well plate containing cold acetonitrile with internal standard (50 ng/mL carbamazepine). Plates were then centrifuged at 3000 rcf (4 °C) for 10 min, and the supernatant was transferred to a separate 96-well plate and diluted 1:1 with water for LC/MS/MS analysis. The in vitro half-life ( 1/2, min, Eq. 1), intrinsic clearance (CLint, mL/min/kg, Eq. 2), and subsequent predicted hepatic clearance (CLhep, mL/min/kg, Eq. 3) was determined employing the […]
(§2) where k represents the slope from linear regression analysis of the natural log percent remaining of a test compound as a function of incubation time […]
(§3) (2) CLint = in vitroT1/2 x mg microsomes x gram liver x kg body wt ascale-up factors: of 20 (human) or 45 (rat) […]
(§4) where Qh (hepatic blood flow, mL/min/kg) is 21 (human) or 70 (rat).
(§5) LC/MS/MS Bioanalysis of Samples from Plasma Protein Binding and Intrinsic Clearance […]
(§6) Samples were analyzed on a Thermo Electron TSQ Quantum Ultra triple quad mass spectrometer (San Jose, CA) via electrospray ionization (ESI) with two Themo Electron Accella pumps (San Jose, CA), and a Leap Technologies CTC PAL autosampler (Carrboro, NC). Analytes were separated by gradient elution on a dual column system with two Thermo Hypersil Gold (2.1 x 30 mm, 1.9 µm) columns (San Jose, CA) thermostated at 40 °C. HPLC mobile phase A was 0.1% formic acid in water and mobile phase B was 0.1% formic acid in acetonitrile. The gradient started […]
(§7) for 0.2 min; returned to 10% B in 0.1 min. The total run time was 1.3 min and the HPLC flow rate was 0.8 mL/min. While pump 1 ran the gradient method, pump 2 equilibrated the alternate column isocratically at 10% B. Compound optimization, data collection, and processing was performed using Thermo Electron's QuickQuan software (v2.3) and Xcalibur (v2.0.7 SP1).
(§8) In vivo DMPK experimental:
(§9) Determination of brain to plasma ratio: […]

[2] = Predicted hepatic clearance, hepatic microsomes (rat)
Procedure: as §1, §2, §3, §4, §5, §6, §7, §8, §9

[3] = Plasma protein binding, equilibrium dialysis (dog); settings: pH 7.4, read-out: fu,plasma
Procedure: page 5: Drug Metabolism Methods: In vitro Plasma protein binding and Brain homogenate binding: Determination of fraction unbound (f u) in plasma was conducted in vitro via equilibrium dialysis using HTDialysis (HTD) membrane plates. The top half of the plate was filled with 100 uL of Dubelco’s Phosphate Buffered Saline, pH 7.4 (DPBS). Compounds were diluted into plasma from each species (5 µM final concentration), which was aliquoted in triplicate to the ‘bottom half’ of the prepared HTD plate wells. The HTD plate was sealed and incubated for 6 hours at 37 °C. Following incubation, each well (both top and bottom halves) were transferred (20 µL) to the corresponding wells of a 96- shallow-well (V-bottom) plate. The daughter plates were then matrix-matched (DPBS side wells received equal volume of plasma, and plasma side wells received equal volume of DPBS), and extraction solution (120 µL; acetonitrile containing 50 nM carbamazepine as IS) was added to all wells of both daughter plates to precipitate protein and extract test article. The plates were then sealed and centrifuged (3500 rcf) for 10 minutes at ambient temperature. Supernatant (60 µL) from each well of the daughter plates was then transferred to the corresponding wells of new daughter plates (96-shallow-well, V bottom) containing water (Milli-Q, 60 µL/well), and the plates were sealed in preparation for LC-MS/MS analysis (see LC-MS/MS analysis method below). The unbound fraction (f u) was calculated following the equation below, and mean values for each species were calculated from 3 replicates. […] Fraction unbound for both plasma and brain samples was determined using Equation 4. f = Concbuffer u Concplasma Equation 4 Determination of fraction unbound in plasma. […]

[4] = molecular target: CYP 2C9 (Homo sapiens, UniProt P11712); experiment: CYP inhibition 2C9
From the text: (§10) Table 1 Pharmacology and In Vitro DMPK Profiles of M1 PAMs 1, 3, and 5 | column: 1; 3; 5

[5] = molecular target: CYP 2D6 (Homo sapiens, UniProt P10635); experiment: CYP inhibition 2D6
From the text: as §10

[6] = molecular target: CYP 3A4 (Homo sapiens, UniProt P08684); experiment: CYP inhibition 3A4
From the text: as §10

[7] = Hepatocyte metabolite identification (human); settings: human hepatocytes, 4 h incubation
Procedure: Prior to full characterization of deuterated analogues 3 and 5, they were incubated in rat, dog, monkey, and human hepatocytes, along with 1, to determine the amount of parent remaining, as well as the degree of undesired oxidative metabolites 2, 4, and 6 (Figure 2). […] For the gem-dideutero congener 3, metabolic stability was improved in vitro. […] Thus, in hepatocytes in vitro, the kinetic isotope effect engendered greater metabolic stability of the labile hot spot on the lactam. It remained to be seen if this effect would translate in vivo, but we first had to assess the impact of the deuterated analogues on molecular pharmacology, in vitro DMPK, standard low-dose in vivo DMPK and, if warranted, in vivo efficacy in a rat novel object recognition (NOR) behavioral assay.

Chain of CYP 3A4 (P08684 whole entry): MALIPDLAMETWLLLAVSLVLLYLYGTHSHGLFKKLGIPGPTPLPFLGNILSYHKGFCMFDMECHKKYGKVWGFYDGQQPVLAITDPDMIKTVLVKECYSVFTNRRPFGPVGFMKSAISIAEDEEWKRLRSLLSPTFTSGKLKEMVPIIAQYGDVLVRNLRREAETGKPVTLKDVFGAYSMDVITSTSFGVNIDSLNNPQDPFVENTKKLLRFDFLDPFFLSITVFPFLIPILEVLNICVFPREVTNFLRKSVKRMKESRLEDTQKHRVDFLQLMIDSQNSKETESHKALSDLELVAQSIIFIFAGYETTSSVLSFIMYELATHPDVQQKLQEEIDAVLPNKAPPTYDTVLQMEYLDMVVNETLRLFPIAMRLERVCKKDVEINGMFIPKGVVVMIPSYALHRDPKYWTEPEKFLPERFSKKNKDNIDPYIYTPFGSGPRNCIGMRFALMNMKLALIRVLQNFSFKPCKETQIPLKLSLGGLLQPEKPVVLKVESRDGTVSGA
Chain of CYP 2D6 (P10635 whole entry): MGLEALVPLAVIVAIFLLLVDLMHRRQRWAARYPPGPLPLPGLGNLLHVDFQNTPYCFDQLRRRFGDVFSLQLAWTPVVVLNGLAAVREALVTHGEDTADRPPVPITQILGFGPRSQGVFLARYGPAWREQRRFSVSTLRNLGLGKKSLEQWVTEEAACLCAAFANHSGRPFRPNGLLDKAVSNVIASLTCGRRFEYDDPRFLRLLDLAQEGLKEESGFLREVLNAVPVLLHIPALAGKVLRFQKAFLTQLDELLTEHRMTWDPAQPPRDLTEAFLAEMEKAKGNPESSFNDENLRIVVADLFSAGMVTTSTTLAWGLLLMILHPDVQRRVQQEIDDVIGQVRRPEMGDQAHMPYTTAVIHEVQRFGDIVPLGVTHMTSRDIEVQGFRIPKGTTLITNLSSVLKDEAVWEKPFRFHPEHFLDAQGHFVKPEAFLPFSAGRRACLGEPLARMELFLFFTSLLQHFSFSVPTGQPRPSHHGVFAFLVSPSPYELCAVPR
Chain of CYP 2C9 (P11712 whole entry): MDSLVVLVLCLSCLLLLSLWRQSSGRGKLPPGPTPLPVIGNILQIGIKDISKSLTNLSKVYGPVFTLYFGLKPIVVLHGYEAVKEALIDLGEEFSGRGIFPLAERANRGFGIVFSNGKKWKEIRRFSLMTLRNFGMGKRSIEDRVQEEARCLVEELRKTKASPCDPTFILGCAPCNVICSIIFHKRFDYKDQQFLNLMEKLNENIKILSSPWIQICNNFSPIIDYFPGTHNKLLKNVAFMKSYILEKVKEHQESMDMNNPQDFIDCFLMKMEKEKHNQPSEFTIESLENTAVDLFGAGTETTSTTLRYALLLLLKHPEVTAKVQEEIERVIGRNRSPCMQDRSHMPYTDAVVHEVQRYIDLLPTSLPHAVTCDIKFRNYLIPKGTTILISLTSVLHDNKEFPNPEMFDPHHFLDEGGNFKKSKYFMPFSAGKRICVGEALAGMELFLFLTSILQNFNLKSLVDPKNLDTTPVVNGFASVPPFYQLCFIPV

In the case of `[2H]C1([2H])c2ncccc2C(=O)N1Cc1c(F)cc(-c2cccc3nn(C)cc23)cc1F` [compound 3], the “Predicted CLhep” value [1] was 10.6 mL/min/kg, the “Predicted CLhep” value [2] was 41.3 mL/min/kg and the fraction unbound at 6 h, 5 µM [3] was 0.082. It also gave a pIC50 [4] of 4.76, a pIC50 [5] of under 4.52 and a pIC50 [6] of under 4.52. The “% Total Peak Area, parent remaining” value [7] was 82.6%.

In the case of `Cn1cc2c(-c3cc(F)c(CN4Cc5ncccc5C4=O)c(F)c3)cccc2n1` [compound 1], the “Predicted CLhep” value [1] was 1.3 mL/min/kg, the “Predicted CLhep” value [2] was 5.7 mL/min/kg and the fraction unbound at 6 h, 5 µM [3] was 0.076. It also gave a pIC50 [4] of under 4.52, a pIC50 [5] of under 4.52 and a pIC50 [6] of under 4.52. The “% Total Peak Area, parent remaining” value [7] was 65.1%.

With `[2H]C1([2H])c2ncccc2C(=O)N1Cc1c(F)cc(-c2cccc3nn(C([2H])([2H])[2H])cc23)cc1F` [compound 5] the “Predicted CLhep” value [1] was 8.0 mL/min/kg, the “Predicted CLhep” value [2] was 35.9 mL/min/kg and the fraction unbound at 6 h, 5 µM [3] was 0.119. For the same molecule, the pIC50 [4] was 5.06, the pIC50 [5] was under 4.52 and the pIC50 [6] was 4.54. For the same molecule, the “% Total Peak Area, parent remaining” value [7] was 92.3%.

Reference: PMC12006963, “Application of Deuterium in an M1 Positive Allosteric Modulator Back-Up Program: The Discovery of VU6045422” (ACS Chemical Neuroscience, 2025)
